Here are results for 15 molecules from patent publication US9376454B2, “Beta-lactamase inhibitors” (priority 2013, dated 2016).

Molecules are shown by their SMILES.

Common to all, as to type: biochemical
The target in assay [1] is T1, SHV-5 β-lactamase (Klebsiella pneumoniae, UniProt P0A3M1).
T1 construct: made in house; host or cells: E. coli BL21(DE3)
Nature of the assay: β-Lactamase inhibition enzyme assay, SHV-5. On the procedure:
(§1) For SHV-5, Kpc-2, p99AmpC and OXA-1 β-lactamases, E. coli BL21(DE3) bacterial cells carrying expression plasmids (expressed as native untagged proteins) for the individual β-lactamases were grown in 1 L of Superbroth (Teknova Inc. Hollister, Calif.) supplemented with 100 μg/ml kanamycin selection and 1×5052 (0.5% glycerol, 0.05% glucose and 0.2% α-lactose) at 35° C. for 18-20 hours. Cells were harvested by centrifugation (4,000×g, 4° C., 20 min), resuspended in 50 ml of 10 mM HEPES pH 7.5 ( 1/20 of the initial volume). The cells were lysed by sonication (5 pulses of 45 seconds) at 45 W on ice. The lysates were clarified by centrifugation at 10,000×g for 40 minutes at 4° C. Samples were diluted 5-fold in 50 mM sodium acetate pH 5.0, stored overnight at 4° C., after which they were centrifuged at 10,000×g for 30 minutes to clarify, and filtered through 0.45 μm filters. The samples were loaded onto a 5 ml Capto S sepharose cation exchange column (GE Healthcare) pre-equilibrated with 50 mM sodium acetate pH 5.0. The column was washed with 5 column volumes of 50 mM sodium acetate pH 5.0 to wash out unbound protein and a linear gradient of NaCl (0 to 500 mM) was used to elute the protein (over 16 CV) from the column. Fractions were assayed for β-lactamase activity using Centa (Calbiochem, Gibbstown, N.J.) or Nitrocefin (EMD Millipore chemicals, Darmstadt, Germany) as a reporter β-lactamase substrate for activity in the isolated fractions. Active fractions were pooled, concentrated and further purified by gel filtration chromatography on a Superdex 75 prep grade gel filtration column (GE Healthcare, Piscataway, N.J.) pre-equilibrated in 50 mM Hepes pH 7.5, 150 mM NaCl. Active fractions were pooled concentrated, quantitated by BCA protein determination (Thermo Scientific, Rockford, Ill.), dialyzed into PBS and frozen at −80° C. in 20% glycerol until use.
(§2) An equal volume of diluted enzyme stock was added, and the plates were incubated at 37° C. for 15 min. Nitrocefin was used as substrate for p99 AmpC, VIM-2 and OXA-1 and dispensed into each well at a final concentration of 100 μM. Absorbance at 486 nm was immediately monitored for 10 min using a Biotek Powerwave XS2 microplate spectrophotometer using the GEN5 softweare package (Biotek Instruments, Winooski Vt.). In an analogous fashion, imipenem was used as substrate for Kpc-2 and Cefotaxime was used for SHV-5, while changes in absorbance upon hydrolysis of the β-lactam ring were monitored at 300 nm and 260 nm respectively in UV-transparent 96-well microtiter assay plates. Maximum rates of hydrolysis were compared to those in control wells (without inhibitors), and percentages of enzyme inhibition were calculated for each concentration of inhibitor. The concentration of inhibitor needed to reduce the initial rate of hydrolysis of substrate by 50% (IC50) was calculated as the residual activity of β-lactamase at 486 nm using GraFit version 7 kinetics software package (Erithacus Software, Surrey, UK).

The target of assay [2] is T2, KPC-2 β-lactamase (Klebsiella pneumoniae, UniProt Q9F663).
T2 construct: made in house; host or cells: E. coli BL21(DE3)
T2 sequence (Q9F663 25-293, looked up): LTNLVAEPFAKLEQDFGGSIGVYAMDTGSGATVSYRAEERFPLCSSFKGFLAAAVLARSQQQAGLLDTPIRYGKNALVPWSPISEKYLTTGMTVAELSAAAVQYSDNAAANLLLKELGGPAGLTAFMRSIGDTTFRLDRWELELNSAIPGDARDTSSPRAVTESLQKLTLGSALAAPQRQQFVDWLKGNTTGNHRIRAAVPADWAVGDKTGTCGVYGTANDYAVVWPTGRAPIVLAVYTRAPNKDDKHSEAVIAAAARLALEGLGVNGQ
Nature of the assay: β-Lactamase inhibition enzyme assay, KPC-2. The conditions noted are these: imipenem as substrate, 300 nm; 15 min at 37° C. with enzyme, PBS pH 7.4; read-out: Class A KPC-2 IC50. On the procedure: as §1, §2

In assay [3] the target is T3, VIM-2 metallo β-lactamase (Pseudomonas aeruginosa, UniProt Q9K2N0).
T3 construct: made in house; host or cells: E. coli BL21(DE3)
Nature of the assay: β-Lactamase inhibition enzyme assay, VIM-2. The conditions noted are these: Nitrocefin 100 μM as substrate, 486 nm; 15 min at 37° C. with enzyme, PBS pH 7.4; read-out: Class B VIM-2 IC50. The method, then:
as §1
For Vim-2 metallo β-lactamase, the procedure was identical with the following exceptions, first the protein was not pH adjusted to pH 5 with 50 mM sodium acetate, second, the chromatography step was changed to a 5 ml Q sepharose anion exchange column pre-equilibrated with 50 mM Hepes pH 7.5, and elution of the protein was achieved by a linear gradient of NaCl (0-600 mM). Finally, the VIM-2 purification required a second run (3rd step) on the Q sepharose anion exchange column to achieve acceptable purity (>90%).
as §2

For assay [4], the target named is T4, p99 AmpC β-lactamase (Enterobacter cloacae, UniProt P05364).
T4 construct: made in house; host or cells: E. coli BL21(DE3)
T4 sequence (P05364 21-381): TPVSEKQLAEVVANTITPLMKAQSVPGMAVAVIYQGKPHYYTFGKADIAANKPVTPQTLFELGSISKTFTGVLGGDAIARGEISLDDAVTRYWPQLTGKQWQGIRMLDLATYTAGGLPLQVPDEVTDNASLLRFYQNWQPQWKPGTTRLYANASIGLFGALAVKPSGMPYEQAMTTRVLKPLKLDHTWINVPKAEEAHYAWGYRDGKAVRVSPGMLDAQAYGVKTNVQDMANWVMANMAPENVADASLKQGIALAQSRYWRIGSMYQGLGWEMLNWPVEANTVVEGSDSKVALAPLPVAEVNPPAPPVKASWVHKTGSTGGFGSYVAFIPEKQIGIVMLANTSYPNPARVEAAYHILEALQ
Nature of the assay: β-Lactamase inhibition enzyme assay, p99 AmpC. The method, then:
as §1, §2

The target of assay [5] is T5, OXA-1 β-lactamase (Escherichia coli, UniProt P13661).
T5 construct: made in house; host or cells: E. coli BL21(DE3)
T5 sequence (P13661 26-276): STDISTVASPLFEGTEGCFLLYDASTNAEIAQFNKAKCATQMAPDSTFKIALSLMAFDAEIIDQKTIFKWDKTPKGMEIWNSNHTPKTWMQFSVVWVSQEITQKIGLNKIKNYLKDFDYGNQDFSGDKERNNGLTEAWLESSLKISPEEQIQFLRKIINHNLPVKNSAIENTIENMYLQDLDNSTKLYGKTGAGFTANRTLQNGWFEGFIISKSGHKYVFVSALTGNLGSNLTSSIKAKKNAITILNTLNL
Nature of the assay: β-Lactamase inhibition enzyme assay, OXA-1. The conditions noted are these: Nitrocefin 100 μM as substrate, 486 nm; 15 min at 37° C. with enzyme, PBS pH 7.4; read-out: Class D OXA-1 IC50. The method, then:
as §1, §2

T1 sequence (P0A3M1 22-286): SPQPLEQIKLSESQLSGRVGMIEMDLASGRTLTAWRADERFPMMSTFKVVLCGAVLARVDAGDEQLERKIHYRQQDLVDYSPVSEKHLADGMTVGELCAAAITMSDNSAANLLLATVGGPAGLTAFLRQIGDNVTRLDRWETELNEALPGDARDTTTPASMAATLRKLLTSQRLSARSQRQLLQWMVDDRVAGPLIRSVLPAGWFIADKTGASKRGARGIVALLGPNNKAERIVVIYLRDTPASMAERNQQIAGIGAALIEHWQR

In general, IC50 refers to the concentration needed to halve the response being measured. On to `O=C(Cc1ccc2cc[nH]c2c1)N[C@H]1Cc2cccc(C(=O)O)c2OB1O` [Example 46, (R)-2-Hydroxy-3-(2-1H-indol-6-yl-acetylamino)-3,4-dihydro-2H-benzo[e][1,2]oxaborinine-8-carboxylic acid], for which the half-inhibitory concentration (IC50) in assay [1], in assay [2], in assay [3], in assay [4] and in assay [5] was less than 100 nM throughout.

On to `NCCOc1ccc(CC(=O)N[C@H]2Cc3cccc(C(=O)O)c3OB2O)cc1O` [Example 59, (R)-3-(2-(4-(2-aminoethoxy)-3-hydroxyphenyl)acetamido)-2-hydroxy-3,4-dihydro-2H-benzo[e][1,2]oxaborinine-8-carboxylic acid], for which the concentration for half-maximal inhibition (IC50) in assay [1] was less than 100 nM; in assay [2], less than 100 nM; in assay [3], 100 to 1000 nM; in assay [4], less than 100 nM; in assay [5] it was less than 100 nM.

As to `NCCNC(=O)c1ccccc1C(=O)N[C@H]1Cc2cccc(C(=O)O)c2OB1O` [Example 54, (R)-3-(2-(2-aminoethylcarbamoyl)benzamido)-2-hydroxy-3,4-dihydro-2H-benzo[e][1,2]oxaborinine-8-carboxylic acid], the half-maximal inhibitory concentration (IC50) is 100 to 1000 nM in assay [1]; 100 to 1000 nM in assay [2]; 1000 to 10000 nM in assay [3]; less than 100 nM in assay [4]; 1000 to 10000 nM in assay [5].

For the molecule `Cn1ccc2ccc(C(=O)N[C@H]3Cc4cccc(C(=O)O)c4OB3O)cc21` [Example 43, (R)-2-Hydroxy-3-[(1-methyl-1H-indole-6-carbonyl)-amino]-3,4-dihydro-2H-benzo[e][1,2]oxaborinine-8-carboxylic acid], the IC50 was 100 to 1000 nM in assay [1]; less than 100 nM in assay [2]; 100 to 1000 nM in assay [3]; less than 100 nM in assay [4]; less than 100 nM in assay [5].

For `NCCN1Cc2ccc(CC(=O)N[C@H]3Cc4cccc(C(=O)O)c4OB3O)cc2C1` [Example 49, (R)-3-{2-[2-(2-Amino-ethyl)-2,3-dihydro-1H-isoindol-5-yl]-acetylamino}-2-hydroxy-3,4-dihydro-2H-benzo[e][1,2]oxaborinine-8-carboxylic acid], the IC50 is less than 100 nM in assay [1]; less than 100 nM in assay [2]; 100 to 1000 nM in assay [3]; less than 100 nM in assay [4]; less than 100 nM in assay [5].

On to `N=C(N)NCc1ccc(C(=O)N[C@H]2Cc3cccc(C(=O)O)c3OB2O)cc1CNC(=N)N` [Example 25, (R)-3-(3,4-bis(guanidinomethyl)benzamido)-2-hydroxy-3,4-dihydro-2H-benzo[e][1,2]oxaborinine-8-carboxylic acid], for which the IC50 in assay [1] was 100 to 1000 nM; in assay [2] it was less than 100 nM; in assay [3], less than 100 nM; in assay [4], less than 100 nM; in assay [5] it was 100 to 1000 nM.

Turning to `NCCNc1ccc(CC(=O)N[C@H]2Cc3cccc(C(=O)O)c3OB2O)cn1` [Example 60, (R)-3-(2-(6-(2-aminoethylamino)pyridin-3-yl)acetamido)-2-hydroxy-3,4-dihydro-2H-benzo[e][1,2]oxaborinine-8-carboxylic acid], the IC50 in assay [1] was less than 100 nM; in assay [2] it was less than 100 nM; in assay [3], 100 to 1000 nM; in assay [4], less than 100 nM; in assay [5] it was less than 100 nM.

As for `Cc1ccc(C(=O)N[C@H]2Cc3cccc(C(=O)O)c3OB2O)cc1NC(=O)[C@@H](N)CN` [Example 22, (R)-3-(3-((S)-2,3-diaminopropanamido)-4-methylbenzamido)-2-hydroxy-3,4-dihydro-2H-benzo[e][1,2]oxaborinine-8-carboxylic acid], the IC50 is 1000 to 10000 nM in assay [1]; 100 to 1000 nM in assay [2]; 100 to 1000 nM in assay [3]; less than 100 nM in assay [4]; less than 100 nM in assay [5].

Regarding `NCc1ccc(CC(=O)N[C@H]2Cc3cccc(C(=O)O)c3OB2O)cc1CN` [Example 20, (R)-3-(2-(3,4-bis(aminomethyl)phenyl)acetamido)-2-hydroxy-3,4-dihydro-2H-benzo[e][1,2]oxaborinine-8-carboxylic acid], the IC50 in assay [1], in assay [2], in assay [3], in assay [4] and in assay [5] was less than 100 nM in each case.

In the case of `O=C(N[C@H]1Cc2cccc(C(=O)O)c2OB1O)c1cnco1` [Example 52, (R)-2-Hydroxy-3-[(oxazole-5-carbonyl)-amino]-3,4-dihydro-2H-benzo[e][1,2]oxaborinine-8-carboxylic acid], the half-inhibitory concentration (IC50) in assay [1] is less than 100 nM; in assay [2], less than 100 nM; in assay [3] it was 100 to 1000 nM; in assay [4] it was less than 100 nM; in assay [5], less than 100 nM.

For the molecule `CN(C)Cc1ccc(C(=O)N[C@H]2Cc3cccc(C(=O)O)c3OB2O)cc1NC(=O)[C@@H](N)CN` [Example 21, (R)-3-(3-((S)-2,3-diaminopropanamido)-4-((dimethylamino)methyl)benzamido)-2-hydroxy-3,4-dihydro-2H-benzo[e][1,2]oxaborinine-8-carboxylic acid], the half-inhibitory concentration (IC50) is 100 to 1000 nM in assay [1]; less than 100 nM in assay [2]; less than 100 nM in assay [3]; less than 100 nM in assay [4]; less than 100 nM in assay [5].

Take `O=C(N[C@H]1Cc2cccc(C(=O)O)c2OB1O)c1csc2c1CCNC2` [Example 4, (R)-2-hydroxy-3-(4,5,6,7-tetrahydrothieno[2,3-c]pyridine-3-carboxamido)-3,4-dihydro-2H-benzo[e][1,2]oxaborinine-8-carboxylic acid]: the IC50 in assay [1] was less than 100 nM; in assay [2], less than 100 nM; in assay [3], 100 to 1000 nM; in assay [4], less than 100 nM; in assay [5] it was less than 100 nM.

With `NCCNc1ccc(CC(=O)N[C@H]2Cc3cccc(C(=O)O)c3OB2O)cc1` [Example 57, (R)-3-(2-(4-(2-aminoethylamino)phenyl)acetamido)-2-hydroxy-3,4-dihydro-2H-benzo[e][1,2]oxaborinine-8-carboxylic acid], the 50% inhibitory concentration (IC50) in assay [1] was less than 100 nM; in assay [2] it was less than 100 nM; in assay [3], 1000 to 10000 nM; in assay [4], less than 100 nM; in assay [5] it was less than 100 nM.

As to `NCCn1ccc2c(C(=O)N[C@H]3Cc4cccc(C(=O)O)c4OB3O)cccc21` [Example 42, (R)-3-{[1-(2-Amino-ethyl)-1H-indole-4-carbonyl]-amino}-2-hydroxy-3,4-dihydro-2H-benzo[e][1,2]oxaborinine-8-carboxylic acid], the IC50 in assay [1] is less than 100 nM; in assay [2] it was less than 100 nM; in assay [3], 100 to 1000 nM; in assay [4], less than 100 nM; in assay [5], less than 100 nM.

Turning to `O=C(N[C@H]1Cc2cccc(C(=O)O)c2OB1O)c1ccc2cc[nH]c2c1` [Example 30, (R)-2-hydroxy-3-(1H-indole-6-carboxamido)-3,4-dihydro-2H-benzo[e][1,2]oxaborinine-8-carboxylic acid], the IC50 in assay [1] is 100 to 1000 nM; in assay [2], less than 100 nM; in assay [3] it was 100 to 1000 nM; in assay [4], less than 100 nM; in assay [5] it was less than 100 nM.
